Results from publication PMC1968811, “Pharmacokinetics in melanoma-bearing mice of 5-dihydroxyboryl-6-propyl-2-thiouracil (BPTU), a candidate compound for boron neutron capture therapy” (British Journal of Cancer, 1994).
Each block holds one compound with its values, some of them ahead of it.

Columns and labels:
[1] = tested on: pigmented B16 melanoma (B16wt); test: Tumour boron uptake and retention in subcutaneous pigmented B16 tumours; type: in vivo, C57/BL mice; conditions: for Tumour boron conc. / Tumour-to-blood ratio (boron): BSH 50 mg kg-1 boron single dose, B16.wt
Text: (§1) Br. J. Cancer (1994), 69, 641 647 ? Macmillan Press Ltd., 1994~~~~~~~~~~~~~~~~~~~~~~~~~~~~~~~~~~~~~~~~~~~~~~~~~~~~~~~~~~~~~~~~~~~~~~~~~~~~~~~~~~~~~ Pharmacokinetics in melanoma-bearing- mice of 5-dihydroxyboryl- 6-propyl-2-thiouracil (BPTU), a candidate compound for boron neutron capture therapy R. Verrijkl, I.J.H. Smolders', R. Huiskamp2, P.R. Gavin3,. K.H.I. Philipp2 & A.C. Begg' 'The Netherlands Cancer Institute, Division of Experimental Therapy, Plesmanlaan 121, 1066 CX, Amsterdam, The Netherlands; 2The Netherlands Energy Research Foundation, Division of Radiobiology and Radioecology, PO Box 1, 1755 SG, Petten, The Netherlands; 3Department of Veterinary Clinical Medicine and Surgery and Washington Animal Disease and Diagnostic Laboratory, Washington State University, Pullman, Washington 99164-6610, USA. Summary Blood pharmacokinetics and tissue distribution of 5-dihydroxyboryl-6-propyl-2-thiouracil (BPTU), a boron carrier with postulated melanin-seeking properties for boron neutron capture therapy, were deter- mined in C57/BL mice with subcutaneous pigmented or non-pigmented B16 melanomas. Borocaptate sodium (BSH) was used as a boron compound without melanin-seeking properties in a comparative biodistribution study in the same animal tumour models. […] BPTU was found in large concentra- tions in kidney and liver. Brain boron was approximately 10-fold lower than tumour boron. […] Owing to solubility limits, tumour boron concentrations in this mouse study were too low for effective application of BNCT. However, the high tumour-to-blood and tumour-to-normal tissues ratios indicate that, with appropriate formulation, BPTU could be a promising candidate for clinical BNCT. […] The selective accumulation of "'B-containing compounds in tumours and subsequent irradiation with low-energy (thermal) neutrons form the basis of BNCT. The short track lengths of `'B(n,a)7Li fission pro- ducts (9 and 5 iLm for a and 7Li respectively) offer partial restriction of the radiation dose to the "'B-containing cells. Additional advantages owing to the high-LET (linear energy transfer) character of the emitted radiation are higher biological efficacies compared with photons or X-rays and less effect of hypoxia or cell cycle distribution on the therapeutic effect. The relatively high resistance of melanomas for photon therapy and the presence of a bio- chemical rationale for boron targeting explain the efforts made in this area (Mishima et al., 1989; Madoc Jones et al., 1990). The often high rate of melanogenesis in melanoma cells has led to the development of several boron drugs with melanoma-seeking capacity. The L-isomer of boronphenylalanine (BPA) is taken up by melanoma cells both in vitro and in vivo (Ichihashi et al., 1982; 1989; Coderre et al., 1987; 1990; Allen et al., 1992; Packer et al., 1992). Animal studies on BNCT efficacy and normal tissue tolerance with BPA have also been performed (Coderre et al., 1991; 1992; Hiratsuka et al., 1991). Although the uptake of BPA in melanoma cells is well accepted, incor- poration of boron into melanin might not occur, resulting in poor retention. Boronated thiouracils that enter the melanogenesis pathway at a different point from BPA have been recently synthesised, aiming at boron incorporation into the melanin for better retention (Tjarks & Gabel, 1991). […] Since the radiation dose in BNCT is mainly dependent on cellular boron levels, amelanotic tumour cell subpopulations may limit the efficacy of boron compounds that target the pigmented tumour cell fraction only. […] Begg. Received 1 September 1993; and in revised form 15 November 1993. into cell populations with different pigmentation levels in experimental tumour models, melanomas often increase in the amelanotic fraction with tumour progression and metas- tasis development in humans (Guiliano et al., 1982; Elder, 1987). It is therefore important to establish the capacity of melanoma-seeking boron drugs to target the amelanotic cells in a tumour. […]

[2] = tested on: non-pigmented B16.013 melanoma; test: Tumour boron uptake and retention in subcutaneous non-pigmented B16.013 tumours; type: in vivo, C57/BL mice; conditions: for Tumour boron conc. / Tumour-to-blood ratio (boron): BSH 50 mg kg-1 boron single dose, B16.013
Text: as §1

[3] = Boron distribution in blood and normal tissues (skin, muscle, brain, kidneys, liver) of tumour-bearing mice; type: in vivo, C57/BL mice
Text: (§2) Br. J. Cancer (1994), 69, 641 647 ? Macmillan Press Ltd., 1994~~~~~~~~~~~~~~~~~~~~~~~~~~~~~~~~~~~~~~~~~~~~~~~~~~~~~~~~~~~~~~~~~~~~~~~~~~~~~~~~~~~~~ Pharmacokinetics in melanoma-bearing- mice of 5-dihydroxyboryl- 6-propyl-2-thiouracil (BPTU), a candidate compound for boron neutron capture therapy R. Verrijkl, I.J.H. Smolders', R. Huiskamp2, P.R. Gavin3,. K.H.I. Philipp2 & A.C. Begg' 'The Netherlands Cancer Institute, Division of Experimental Therapy, Plesmanlaan 121, 1066 CX, Amsterdam, The Netherlands; 2The Netherlands Energy Research Foundation, Division of Radiobiology and Radioecology, PO Box 1, 1755 SG, Petten, The Netherlands; 3Department of Veterinary Clinical Medicine and Surgery and Washington Animal Disease and Diagnostic Laboratory, Washington State University, Pullman, Washington 99164-6610, USA. Summary Blood pharmacokinetics and tissue distribution of 5-dihydroxyboryl-6-propyl-2-thiouracil (BPTU), a boron carrier with postulated melanin-seeking properties for boron neutron capture therapy, were deter- mined in C57/BL mice with subcutaneous pigmented or non-pigmented B16 melanomas. Borocaptate sodium (BSH) was used as a boron compound without melanin-seeking properties in a comparative biodistribution study in the same animal tumour models. […] BPTU was found in large concentra- tions in kidney and liver. Brain boron was approximately 10-fold lower than tumour boron. […] Owing to solubility limits, tumour boron concentrations in this mouse study were too low for effective application of BNCT. However, the high tumour-to-blood and tumour-to-normal tissues ratios indicate that, with appropriate formulation, BPTU could be a promising candidate for clinical BNCT. […] The selective accumulation of "'B-containing compounds in tumours and subsequent irradiation with low-energy (thermal) neutrons form the basis of BNCT. The short track lengths of `'B(n,a)7Li fission pro- ducts (9 and 5 iLm for a and 7Li respectively) offer partial restriction of the radiation dose to the "'B-containing cells. Additional advantages owing to the high-LET (linear energy transfer) character of the emitted radiation are higher biological efficacies compared with photons or X-rays and less effect of hypoxia or cell cycle distribution on the therapeutic effect. The relatively high resistance of melanomas for photon therapy and the presence of a bio- chemical rationale for boron targeting explain the efforts made in this area (Mishima et al., 1989; Madoc Jones et al., 1990). The often high rate of melanogenesis in melanoma cells has led to the development of several boron drugs with melanoma-seeking capacity. […]

[4] = Solubility limit in formulation for injection; type: physicochemical; conditions: limited the dose administered to mice
Text: Br. J. Cancer (1994), 69, 641 647 ? Macmillan Press Ltd., 1994~~~~~~~~~~~~~~~~~~~~~~~~~~~~~~~~~~~~~~~~~~~~~~~~~~~~~~~~~~~~~~~~~~~~~~~~~~~~~~~~~~~~~ Pharmacokinetics in melanoma-bearing- mice of 5-dihydroxyboryl- 6-propyl-2-thiouracil (BPTU), a candidate compound for boron neutron capture therapy R. Verrijkl, I.J.H. Smolders', R. Huiskamp2, P.R. Gavin3,. K.H.I. Philipp2 & A.C. Begg' 'The Netherlands Cancer Institute, Division of Experimental Therapy, Plesmanlaan 121, 1066 CX, Amsterdam, The Netherlands; 2The Netherlands Energy Research Foundation, Division of Radiobiology and Radioecology, PO Box 1, 1755 SG, Petten, The Netherlands; 3Department of Veterinary Clinical Medicine and Surgery and Washington Animal Disease and Diagnostic Laboratory, Washington State University, Pullman, Washington 99164-6610, USA. Summary Blood pharmacokinetics and tissue distribution of 5-dihydroxyboryl-6-propyl-2-thiouracil (BPTU), a boron carrier with postulated melanin-seeking properties for boron neutron capture therapy, were deter- mined in C57/BL mice with subcutaneous pigmented or non-pigmented B16 melanomas. Borocaptate sodium (BSH) was used as a boron compound without melanin-seeking properties in a comparative biodistribution study in the same animal tumour models. […] BPTU was found in large concentra- tions in kidney and liver. Brain boron was approximately 10-fold lower than tumour boron. […]

[5] = tested on: melanotic B16 cells; conditions: cited from earlier work; for Retention in cells in vitro: after washing, ref R. Verrijk et al., 1991, unpublished data
[6] = tested on: non-pigmented B16.013 subclone; parameters: method as in R. Verrijk et al., 1991, unpublished data; conditions: non-pigmented B16.013 cells; ref R. Verrijk et al., 1991, unpublished data; cited from earlier work
[7] = Blood boron pharmacokinetics in B16 melanoma-bearing mice (ICP-AES, two-compartment fit); type: in vivo, C57/BL mice; conditions: for Cmax blood, maximum boron concentration in blood: calculated values, BSH 50 mg kg-1 boron i.v.
Text: as §2, with “cells.” for “cells. Additional advantages owing to the high-LET (linear energy transfer) character of the emitted radiation are higher biological efficacies compared with photons or X-rays and less effect of hypoxia or cell cycle distribution on the therapeutic effect. The relatively high resistance of melanomas for photon therapy and the presence of a bio- chemical rationale for boron targeting explain the efforts made in this area (Mishima et al., 1989; Madoc Jones et al., 1990). The often high rate of melanogenesis in melanoma cells has led to the development of several boron drugs with melanoma-seeking capacity.”

[8] = tested on: subcutaneous fibrosarcoma RIF-1; test: BSH boron pharmacokinetics in blood and RIF-1 tumour tissue; type: in vivo, C3H/Km mice
[9] = BSH 50 mg kg-1 boron i.v., 12 min after administration

- Change of mean tumour boron concentration, multiple vs single BPTU administration ([1]; 4 x 3.15 vs 3.15 mg kg-1 boron, 24 h, pigmented B16): increased more than three times
- Solubility [4]: insufficient solubility
Compound: CCCc1[nH]c(=S)[nH]c(=O)c1B(O)O [BPTU, 5-dihydroxyboryl-6-propyl-2-thiouracil]
- Tumour boron vs blood boron profile ([2]; BPTU single dose, non-pigmented tumour variant): tumour boron levels closely followed blood levels
- Boron in kidney and liver ([3]; BPTU single doses): found in large concentrations in kidney and liver
- Retention in cells in vitro ([5]; melanotic B16 cells): better retained in the cells than BPA or BSH
- Retention in cells in vitro [6]: failed to be retained

Compound: O=c1[nH]c(=S)[nH]cc1B(O)O [BTU, boronthiouracil]
- Retention in cells in vitro ([5]; melanotic B16 cells): showed no retention at all in either cell line
- Retention in cells in vitro [6]: showed no retention at all in either cell line

- Mean ratio Cmax tumour/injected dose ([1]; BSH 50 mg kg-1 boron i.v., B16wt tumour): 0.7
- Tumour boron conc. ([1]; 4 h): 7.6 g g-g'
- Tumour-to-blood ratio (boron) ([1]; 4 h): 1.1
- Tumour boron conc. ([1]; 24 h): 2.3 g g-g'
- Tumour-to-blood ratio (boron) ([1]; 24 h): 3.4
- Cmax tumour, maximum boron concentration in tumour ([1]; highest measured values, BSH 50 mg kg-1 boron i.v., B16wt tumour): 32.8 3.52 g mg-
- Mean ratio Cmax tumour/injected dose ([2]; BSH 50 mg kg-1 boron i.v., B16.013 tumour): 1.0
- Tumour boron conc. ([2]; 4 h): 10.5 g g-g'
- Tumour-to-blood ratio (boron) ([2]; 4 h): 1.5
- Tumour boron conc. ([2]; 24 h): 2.2 g g-g'
- Tumour-to-blood ratio (boron) ([2]; 24 h): 4.0
- Cmax tumour, maximum boron concentration in tumour ([2]; highest measured values, BSH 50 mg kg-1 boron i.v., B16.013 tumour): 49.8 11.0 g mg-
- Liver boron level [3, 9]: up to 230 Agg- g
- Liver boron relative to blood boron [3, 9]: 8 fold
- Liver-to-kidney boron concentration ratio ([3]; BSH, during the tissue distribution phase): 2-4
- Tumour-to-blood ratios of boron ([8]; BSH 50 mg kg-1 boron, RIF-1 fibrosarcoma, 24 or 48 h): not significantly above unity
- Boron tumour-to-blood ratios ([8]; BSH, at times before 24 h, tumour model not named at the place): below 1
Compound: Borocaptate sodium [BSH]
- Cmax values relative to BPTU ([7]; BSH 50 vs BPTU 3.15 mg kg-1 boron): approximately 10 fold
- Cmax blood, maximum boron concentration in blood ([7]; B16wt-bearing mice): 59.4 ± 10.6 g mli
- Cmax blood, maximum boron concentration in blood ([7]; B16.013-bearing mice): 54.1 ± 14.6 g mli
- Retention of boron in tumour ([1]; BSH 50 mg kg-1 boron, 24 and 48 h, pigmented B16): retained in B16 tumours at 24 and 48 h, irrespective of pigmentation degree
- Retention of boron in tumour ([2]; BSH 50 mg kg-1 boron, 24 and 48 h, non-pigmented B16): retained in B16 tumours at 24 and 48 h, irrespective of pigmentation degree
- Levels of boron in cells vs culture medium ([5]; melanotic B16 cells incubated with BSH, ref Verrijk et al., 1992): higher than in the culture medium only after 16 h incubation
- Cellular boron retention after washing ([5]; melanotic B16 cells, washing with boron-free culture medium for 4 h, ref Verrijk et al., 1992): Partial cel- lular boron retention
